Assay in all cases: NCI tumour cell line growth inhibition, 48 h
The subject of experiment [1] is MOLT-4 leukemia.
Experiment [2] concerns K-562 leukemia.
The subject of experiment [3] is SF-268 CNS.
Experiment [4] relates to SNB-78 CNS.
For experiment [5], the system named is RXF 393 renal.
For experiment [6], the system named is ACHN renal.
Experiment [7] deals with SK-MEL-2 melanoma.
Experiment [8] has as its system U251 CNS.
Experiment [9] relates to XF 498 CNS.
The test system of experiment [10] is MDA-MB-231 breast.

SMILES strings stand for the structures.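 Five compound concentrations were applied to cells in 96-well plates for 48 hours; endpoints were derived by simple linear interpolation of the resulting dose-response curve. At the GI50, growth is halved. TGI marks complete inhibition of growth.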

For the compound `CC1=C(C(=O)Nc2cc(F)c(F)cc2F)C(c2ccc([N+](=O)[O-])cc2)C(C(=O)Nc2cc(F)c(F)cc2F)=C(C)N1`, the TGI in experiment [1] is above 100 µM; in experiment [2] it was above 100 µM; in [3] it was above 100 µM; in experiment [4], above 100 µM; in experiment [5] it was 63.2 µM; in [6], above 100 µM. Moreover, the TGI in experiment [7] and in experiment [8] was above 100 µM in each case.
With `COc1cccc(-c2cc(=O)c3ccccc3[nH]2)c1`, the TGI in experiment [1] is above 100 µM; in experiment [2], above 100 µM; in experiment [3], above 100 µM; in experiment [5], 21 µM; in [6] it was above 100 µM; in [7], above 100 µM. For the same compound, the TGI in experiment [8] is above 100 µM; in experiment [9] it was 72.3 µM.
With `CN1c2ccccc2N(C(=O)c2ccccc2)C(CC(=O)O)c2cccn21` (centres undefined), the TGI in [1], in experiment [2], in experiment [3], in experiment [5], in experiment [6] and in [7] was above 100 µM throughout. The TGI in experiment [8] and in [9] was above 100 µM throughout.
For the compound `CC(SC(=O)Nc1ccc(N=Nc2ccccc2)cc1)C(=O)O` (centres undefined), the TGI is above 100 µM in [1]; above 100 µM in [2]; 48.9 µM in experiment [3]; above 100 µM in [4]; above 100 µM in experiment [5]; above 100 µM in experiment [6]. Moreover, the TGI in [7] and in [8] was above 100 µM throughout.
Take `O=c1[nH]cnc2c1nnn2CCCCCCCCCCCCn1nnc2c(=O)[nH]cnc21`: the TGI in experiment [1] is above 100 µM; in experiment [2] it was above 100 µM; in [3], 79.9 µM; in experiment [4], 48 µM; in experiment [5], above 50.5 µM; in [6], above 100 µM. Besides, the TGI in experiment [7] worked out at 51 µM; in experiment [8], 52.8 µM.
Regarding `CC(=O)[O][Hg][c]1c(C)c(C)cc(C)c1C`, the GI50 in experiment [1] is 0.242 µM; in experiment [2], 0.743 µM; in [3], 0.825 µM; in experiment [5], 0.482 µM; in experiment [10] it was 0.87 µM; in [6], 3.71 µM. In addition, the GI50 in experiment [7] was 1.53 µM; in experiment [8] it was 0.765 µM. Besides, the TGI in experiment [1] is 4.54 µM; in experiment [2], 11 µM; in experiment [3], 2.25 µM; in [5], 1.24 µM; in [10] it was 2.33 µM; in experiment [6] it was 8.18 µM. The values for the TGI in experiment [7] and in experiment [8] were 3.3 µM and 2.26 µM, respectively.
On to `COc1ccc(/C(C#N)=C2C=C/C(=N/O)c3ccccc3\2)cc1`, for which the GI50 in experiment [1] was 0.357 µM; in experiment [2], 0.105 µM; in experiment [3], 0.481 µM; in experiment [5], 0.437 µM; in experiment [10] it was 0.27 µM; in [6], 0.318 µM. Further, the GI50 in experiment [7] was 0.415 µM; in [8], 0.446 µM. The TGI in [1] was found to be 12.6 µM; in [2] it was 14.3 µM; in experiment [3], 15 µM; in [5], 20.6 µM; in [10], 0.796 µM; in experiment [6] it was 15.4 µM. Also, the TGI came out at 12.3 µM in [7] and 15.1 µM in experiment [8].
Regarding `CN(CC(=O)N(Cc1ccc(C2CCCCC2)cc1)c1ccc(C(=O)O)cc1)S(=O)(=O)c1c(F)c(F)c(F)c(F)c1F`, the GI50 was 2.42 µM in [1]; 1.93 µM in experiment [2]; 1.85 µM in [3]; 1.93 µM in experiment [5]; 1.9 µM in experiment [10]; 1.74 µM in experiment [6]. Moreover, the GI50 was 2.06 µM in experiment [7] and 1.86 µM in [8]. In addition, the TGI in [1] turned out to be 6.14 µM; in [2], 5.81 µM; in experiment [3] it was 3.59 µM; in experiment [5] it was 3.37 µM; in [10], 3.51 µM; in experiment [6], 3.15 µM. The TGI in [7] turned out to be 3.68 µM; in experiment [8] it was 3.31 µM.
Turning to `Cc1cc(N2CCN(C)CC2)n2nc(-c3ccc(Cl)cc3)nc2n1`, the TGI in experiment [1], in experiment [2], in experiment [3], in experiment [5], in experiment [10] and in [6] was above 100 µM in each case. In addition, the TGI in experiment [7] and in experiment [8] was above 100 µM in each case.
As to `NC(=S)c1c(N)n(C2OC(CO)C(O)C2O)c2ncnc(N)c12` (centres undefined), the GI50 in experiment [1] was 0.245 µM; in experiment [2], 0.0622 µM; in [3] it was 0.425 µM; in experiment [5], 0.237 µM; in experiment [10] it was 0.333 µM; in experiment [6] it was 0.268 µM. Besides, the GI50 in [7] is 0.297 µM; in experiment [8] it was 0.496 µM. The TGI was 0.927 µM in experiment [1]; 0.494 µM in experiment [2]; 4.52 µM in experiment [3]; 0.557 µM in experiment [5]; above 100 µM in experiment [10]; above 100 µM in experiment [6]. The TGI in experiment [7] was 1.07 µM; in experiment [8], above 100 µM.
With `CCc1nc(N)nc(N)c1-c1ccc(N2CCNCC2)cc1`, the TGI in experiment [1] was above 91.8 µM; in experiment [2], above 87.2 µM; in [3], above 100 µM; in experiment [5], above 100 µM; in [10], above 100 µM; in experiment [6] it was above 100 µM. Also, the TGI in [7] and in [8] was above 100 µM each time.
Turning to `CC1(C)C(=O)C(C)(C)C1=S`, the TGI in experiment [1], in experiment [2], in [3], in experiment [6], in experiment [7] and in [8] was above 100 µM each time. For the same compound, the TGI in experiment [9] is above 100 µM.
For the compound `CN(Cc1cnc2nc(N)nc(N)c2n1)c1ccc(C(=O)NC(CCC(=O)O)C(=O)O)cc1Br` (centres undefined), the GI50 is below 0.01 µM in experiment [1]; below 0.01 µM in experiment [2]; below 0.01 µM in [3]; 0.459 µM in experiment [5]; 6.02 µM in experiment [10]; below 0.01 µM in [6]. Moreover, the GI50 was below 0.01 µM in experiment [7] and below 0.0134 µM in experiment [8]. Moreover, the TGI in experiment [1] is above 46.3 µM; in [2] it was above 100 µM; in experiment [3], 13.1 µM; in [5], 5.01 µM; in experiment [10] it was above 100 µM; in experiment [6] it was above 100 µM. Further, the TGI in experiment [7] and in experiment [8] was above 100 µM throughout.
In the case of `O=C(CN1C(=O)S/C(=C\C(Cl)=C\c2ccccc2)C1=O)NC1C=CS(=O)(=O)C1` (centres undefined), the GI50 in experiment [1] was 0.621 µM; in experiment [2], 0.4 µM; in experiment [3] it was 2.44 µM; in [5], 0.849 µM; in experiment [10], 1.44 µM; in experiment [6], 0.931 µM. Besides, the results for the GI50 in experiment [7] and in experiment [8] were 2.11 µM and 1.88 µM, respectively. Moreover, the TGI in [1] is above 100 µM; in experiment [2], above 100 µM; in experiment [3] it was 8.55 µM; in experiment [5], 2.18 µM; in experiment [10] it was 4.15 µM; in experiment [6], 8.65 µM. For the same compound, the TGI in [7] is 5.22 µM; in experiment [8], 5.9 µM.
In the case of `COc1cc2cc(Oc3ccc(NC(=O)Nc4ccc(Cl)c(Cl)c4)cc3)c(C)nc2cc1OC`, the GI50 was 3.02 µM in experiment [1]; 3.33 µM in experiment [2]; 8.23 µM in experiment [3]; 4.28 µM in experiment [5]; 2.46 µM in experiment [10]; 3 µM in experiment [6]. The GI50 was 3 µM in experiment [7] and 2.19 µM in [8]. Besides, the TGI in experiment [1] is 22.8 µM; in [2], above 100 µM; in experiment [3], above 100 µM; in [5] it was 16.7 µM; in experiment [10], 12 µM; in [6], 12.1 µM. In addition, the TGI in [7] came out at 6.54 µM; in experiment [8] it was 7.26 µM.
In the case of `Cc1ccc(NC(=O)C(=O)CC(=O)c2sc(Nc3c(C)cccc3C)nc2C)cc1C`, the TGI in experiment [1], in experiment [2], in experiment [3], in experiment [5], in experiment [10] and in [6] was above 100 µM each time. The TGI in experiment [7] and in experiment [8] was above 100 µM in each case.
Take `O=C1NC(=NCCCc2ccccc2)S/C1=C\c1ccc2ncccc2c1`: the GI50 was 7.31 µM in experiment [1]; 9.12 µM in [2]; 5.39 µM in [3]; 3.89 µM in [5]; 8.12 µM in experiment [10]; 5.08 µM in experiment [6]. For the same compound, the GI50 in experiment [7] is 4.96 µM; in experiment [8], 2.9 µM. The TGI in experiment [1] was 18.9 µM; in experiment [2], above 25 µM; in experiment [3], 12.5 µM; in experiment [5], 10.4 µM; in experiment [10], above 22.5 µM; in experiment [6] it was 15.6 µM. Moreover, the TGI in experiment [7] is 9.67 µM; in [8], 10.3 µM.

The record behind these values is PubChem BioAssay (NCI).
